Assay [1] is described as follows: T. cruzi growth inhibition in host cells, dose response, cell-based, plate reader, dry powder, set 2 (AID 652275). In kind it is functional.
The nature of assay [2]: Trypanosoma cruzi replication inhibitors in host cells – cell-based, plate reader, dry powder samples, dose response (AID 651845). It counts as functional.
Assay [3] in a line: anti-trypanosomal activity in BESM host cells – imaging, CA-I/72 strain, bovine embryo skeletal muscle, dry powder, dose response (AID 651885). In kind it is functional, cell-based.
Assay [4] deals with Peroxisome proliferator-activated receptor gamma/Nuclear receptor corepressor 2 (Homo sapiens, UniProt P37231+Q9Y618). The assay is described as follows: Counterscreen for NR2E3 inverse agonists: TR-FRET-based biochemical high throughput dose response assay to identify inverse agonists of the interaction between peroxisome proliferator-activated receptor gamma (PPARg) and nuclear receptor co-repressor 2 (NCOR2). It counts as functional.

For assay [5], the target named is Photoreceptor-specific nuclear receptor (Homo sapiens, UniProt Q9Y5X4). As to the kind of experiment: ligands suppressing NR2E3 nuclear receptor activity – biochemical, TR-FRET, dose response (AID 463256). In kind it is functional. In general terms: TR-FRET usually uses a lanthanide donor and a delayed reading to cut background.
Photoreceptor-specific nuclear receptor, sequence (Q9Y5X4 whole entry): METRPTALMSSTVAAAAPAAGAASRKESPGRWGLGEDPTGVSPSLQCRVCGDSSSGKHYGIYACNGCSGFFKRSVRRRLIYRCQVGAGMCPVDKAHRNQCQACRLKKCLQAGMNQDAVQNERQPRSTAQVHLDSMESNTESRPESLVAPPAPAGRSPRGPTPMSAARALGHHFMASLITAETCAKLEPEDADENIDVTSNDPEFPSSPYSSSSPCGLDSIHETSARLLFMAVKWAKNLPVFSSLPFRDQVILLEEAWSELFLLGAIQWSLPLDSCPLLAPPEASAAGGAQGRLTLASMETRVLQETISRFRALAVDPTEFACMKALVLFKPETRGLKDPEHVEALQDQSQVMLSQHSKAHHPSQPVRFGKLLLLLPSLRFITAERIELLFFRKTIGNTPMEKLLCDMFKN
The next assay deals with T1, Cytochrome P450 1A2 (Homo sapiens, UniProt P05177).
T1 sequence (P05177 whole entry): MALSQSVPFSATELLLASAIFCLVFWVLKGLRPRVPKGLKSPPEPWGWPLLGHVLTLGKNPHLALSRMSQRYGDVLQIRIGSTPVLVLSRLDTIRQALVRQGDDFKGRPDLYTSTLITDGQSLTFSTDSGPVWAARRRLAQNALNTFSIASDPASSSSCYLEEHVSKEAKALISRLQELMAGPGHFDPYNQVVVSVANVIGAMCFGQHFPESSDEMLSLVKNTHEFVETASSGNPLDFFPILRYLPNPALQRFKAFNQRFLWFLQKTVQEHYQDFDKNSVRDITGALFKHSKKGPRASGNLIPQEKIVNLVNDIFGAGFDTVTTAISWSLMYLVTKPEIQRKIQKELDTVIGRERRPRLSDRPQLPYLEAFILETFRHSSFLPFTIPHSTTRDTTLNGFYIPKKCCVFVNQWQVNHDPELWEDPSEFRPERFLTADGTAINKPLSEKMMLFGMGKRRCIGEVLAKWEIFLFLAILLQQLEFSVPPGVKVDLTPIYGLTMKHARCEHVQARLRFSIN

The next assay concerns the target Cytochrome P450 3A4 (Homo sapiens, UniProt P08684).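 Also: CYP3A4 tested as one member of a cytochrome P450 panel screen.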
In assay [6] the target is Peroxisome proliferator-activated receptor gamma/Nuclear receptor coactivator 1 (Homo sapiens, UniProt P37231). The assay is described as follows: TR-FRET dose response biochemical High Throughput Screening assay for agonists of the steroid receptor coactivator 1 (SRC-1) recruitment by the peroxisome proliferator-activated receptor gamma (PPAR gamma): non-selective agonists. [Related pubchem assays (depositor defined):AID1300, AID1808, AID504735, AID631]. In kind it is protein assay.
Peroxisome proliferator-activated receptor gamma/Nuclear receptor coactivator 1, sequence (P37231 whole entry): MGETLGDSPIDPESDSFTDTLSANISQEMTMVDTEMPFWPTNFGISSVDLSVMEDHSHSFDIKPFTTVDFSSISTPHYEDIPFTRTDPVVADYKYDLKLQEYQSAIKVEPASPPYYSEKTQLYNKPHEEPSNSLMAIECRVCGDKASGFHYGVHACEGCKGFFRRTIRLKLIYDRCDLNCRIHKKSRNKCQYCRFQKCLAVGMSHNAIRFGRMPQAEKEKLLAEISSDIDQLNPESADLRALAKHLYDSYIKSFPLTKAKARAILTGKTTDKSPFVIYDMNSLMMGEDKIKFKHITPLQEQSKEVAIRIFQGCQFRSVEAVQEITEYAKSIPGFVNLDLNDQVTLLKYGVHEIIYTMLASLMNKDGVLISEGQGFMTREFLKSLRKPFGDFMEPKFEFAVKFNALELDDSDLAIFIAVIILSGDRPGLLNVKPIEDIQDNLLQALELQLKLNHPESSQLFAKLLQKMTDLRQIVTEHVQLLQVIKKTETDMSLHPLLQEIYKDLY
Peroxisome proliferator-activated receptor gamma/Nuclear receptor coactivator 1, sequence (Q15788 whole entry, further chain): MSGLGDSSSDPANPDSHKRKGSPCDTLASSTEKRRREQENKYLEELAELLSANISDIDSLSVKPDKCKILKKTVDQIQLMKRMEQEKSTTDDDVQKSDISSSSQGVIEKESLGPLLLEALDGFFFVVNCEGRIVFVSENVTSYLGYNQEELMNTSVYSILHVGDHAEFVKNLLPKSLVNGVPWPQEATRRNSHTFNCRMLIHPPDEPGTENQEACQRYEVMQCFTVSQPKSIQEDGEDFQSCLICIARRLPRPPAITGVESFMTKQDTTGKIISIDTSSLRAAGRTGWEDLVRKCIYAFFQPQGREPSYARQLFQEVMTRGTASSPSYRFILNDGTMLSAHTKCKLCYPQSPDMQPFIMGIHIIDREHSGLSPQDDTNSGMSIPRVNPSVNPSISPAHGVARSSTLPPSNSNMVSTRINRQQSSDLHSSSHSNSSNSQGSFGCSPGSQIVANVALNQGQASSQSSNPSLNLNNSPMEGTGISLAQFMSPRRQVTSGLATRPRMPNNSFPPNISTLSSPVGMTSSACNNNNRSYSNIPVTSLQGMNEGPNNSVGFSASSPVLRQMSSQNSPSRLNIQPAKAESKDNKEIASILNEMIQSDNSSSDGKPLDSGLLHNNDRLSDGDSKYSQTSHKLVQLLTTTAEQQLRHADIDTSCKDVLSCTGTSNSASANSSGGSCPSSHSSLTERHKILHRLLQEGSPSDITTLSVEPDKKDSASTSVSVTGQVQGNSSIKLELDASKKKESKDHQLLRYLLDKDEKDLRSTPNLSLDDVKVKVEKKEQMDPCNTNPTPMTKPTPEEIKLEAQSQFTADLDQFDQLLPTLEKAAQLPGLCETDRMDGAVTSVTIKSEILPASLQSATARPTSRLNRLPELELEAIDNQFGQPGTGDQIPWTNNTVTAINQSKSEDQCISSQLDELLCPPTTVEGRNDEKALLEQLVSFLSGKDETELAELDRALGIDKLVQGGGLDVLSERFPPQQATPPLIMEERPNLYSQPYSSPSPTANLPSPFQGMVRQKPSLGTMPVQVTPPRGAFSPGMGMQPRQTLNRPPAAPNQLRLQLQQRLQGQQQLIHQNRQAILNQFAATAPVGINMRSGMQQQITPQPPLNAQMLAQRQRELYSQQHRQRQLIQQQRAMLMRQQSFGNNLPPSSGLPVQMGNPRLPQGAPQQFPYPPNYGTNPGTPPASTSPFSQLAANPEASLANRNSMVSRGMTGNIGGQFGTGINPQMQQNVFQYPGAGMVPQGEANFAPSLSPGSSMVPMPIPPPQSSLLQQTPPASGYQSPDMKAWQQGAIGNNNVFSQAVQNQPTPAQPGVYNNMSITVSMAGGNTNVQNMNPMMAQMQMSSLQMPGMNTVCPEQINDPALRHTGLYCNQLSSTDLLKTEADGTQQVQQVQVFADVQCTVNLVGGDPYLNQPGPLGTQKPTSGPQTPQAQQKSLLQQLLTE

For assay [7], the target named is Peroxisome proliferator-activated receptor gamma/Nuclear receptor coactivator 3 (Homo sapiens, UniProt P37231). The assay is described as follows: TR-FRET dose response biochemical High Throughput Screening assay for agonists of the steroid receptor coactivator 3 (SRC-3) recruitment by the peroxisome proliferator-activated receptor gamma (PPAR gamma): non-selective agonists. [Related pubchem assays: 1301 (Confirmation screen.), 1048 (Primary screen.)]. In kind it is functional.

The nature of assay [8]: RAM pathway signaling blockade in S. cerevisiae – dose response (AID 1307). In kind it is functional.
Assay [9] addresses Peroxisome proliferator-activated receptor gamma/Nuclear receptor coactivator 2 (Homo sapiens, UniProt P37231). The assay is described as follows: TR-FRET dose response biochemical High Throughput Screening assay for agonists of the steroid receptor coactivator 2 (SRC-2) recruitment by the peroxisome proliferator-activated receptor gamma (PPAR gamma): non-selective agonists. [Related pubchem assays: 1297, 1032 ]. It counts as functional.

The target in a further assay is Nonstructural protein 1 (Influenza A virus, UniProt Q194T2). It counts as functional, Influenza A virus (A/California/07/2009(H1N1)).
Nonstructural protein 1, sequence (Q194T2 whole entry): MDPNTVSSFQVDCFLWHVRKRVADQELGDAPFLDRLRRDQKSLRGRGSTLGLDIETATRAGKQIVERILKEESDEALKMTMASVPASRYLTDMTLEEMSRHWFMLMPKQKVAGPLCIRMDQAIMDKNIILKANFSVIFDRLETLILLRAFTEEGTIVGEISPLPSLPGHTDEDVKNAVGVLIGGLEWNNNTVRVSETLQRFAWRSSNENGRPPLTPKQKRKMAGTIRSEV
For assay [10], the target named is 26S proteasome non-ATPase regulatory subunit 14 (Homo sapiens, UniProt O00487). The assay is described as follows: inhibition of proteasome subunit RPN11 – biochemical, fluorescence polarization, uHTS hits, confirmation (AID 602368). It counts as functional. (Polarisation of emitted light reports the rotation of a fluorescent probe.)
26S proteasome non-ATPase regulatory subunit 14, sequence (O00487 whole entry): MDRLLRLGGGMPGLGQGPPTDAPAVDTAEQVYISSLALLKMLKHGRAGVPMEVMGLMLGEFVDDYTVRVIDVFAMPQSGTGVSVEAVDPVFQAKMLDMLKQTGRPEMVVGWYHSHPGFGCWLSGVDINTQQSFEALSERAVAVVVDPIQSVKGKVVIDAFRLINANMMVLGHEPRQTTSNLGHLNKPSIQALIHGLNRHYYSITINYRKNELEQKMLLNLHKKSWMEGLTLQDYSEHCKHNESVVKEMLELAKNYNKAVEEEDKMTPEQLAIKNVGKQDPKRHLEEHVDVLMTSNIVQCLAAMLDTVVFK
The target in assay [11] is 72 kDa type IV collagenase (Homo sapiens, UniProt P08253). As to the kind of experiment: Dose Response validation of uHTS RPN11 inhibitor hits using a MMP-2 Fluorescence assay. It counts as functional.
72 kDa type IV collagenase, sequence (P08253 whole entry): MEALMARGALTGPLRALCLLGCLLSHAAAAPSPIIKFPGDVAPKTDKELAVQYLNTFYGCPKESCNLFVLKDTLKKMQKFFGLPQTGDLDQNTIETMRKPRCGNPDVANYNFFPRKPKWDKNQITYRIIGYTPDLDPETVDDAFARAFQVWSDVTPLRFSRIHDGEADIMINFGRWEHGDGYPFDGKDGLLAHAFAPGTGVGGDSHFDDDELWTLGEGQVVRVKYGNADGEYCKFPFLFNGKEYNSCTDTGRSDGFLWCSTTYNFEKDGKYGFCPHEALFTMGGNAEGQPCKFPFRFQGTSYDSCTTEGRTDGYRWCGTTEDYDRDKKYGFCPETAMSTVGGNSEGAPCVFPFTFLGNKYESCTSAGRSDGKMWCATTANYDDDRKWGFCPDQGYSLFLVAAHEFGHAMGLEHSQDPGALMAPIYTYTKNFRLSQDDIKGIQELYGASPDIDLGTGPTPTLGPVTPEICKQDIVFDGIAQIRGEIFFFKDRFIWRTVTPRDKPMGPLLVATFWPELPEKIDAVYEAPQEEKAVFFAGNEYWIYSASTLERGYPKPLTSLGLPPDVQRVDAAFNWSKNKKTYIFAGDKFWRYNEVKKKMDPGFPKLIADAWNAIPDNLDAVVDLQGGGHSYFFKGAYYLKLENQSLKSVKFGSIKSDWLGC
Another assay has as its target Prothrombin (Bos taurus, UniProt P00735). The assay is described as follows: thrombin protease inhibitors – biochemical, fluorescence polarization, uHTS hits, dose response (AID 602369). In kind it is functional.
In assay [12] the target is G-protein coupled receptor 183 (Homo sapiens, UniProt P32249). As to the kind of experiment: SAR confirmation of small molecule antagonists of the EBI2 receptor via a luminescent beta-arrestin assa. In kind it is functional.
G-protein coupled receptor 183, sequence (P32249 whole entry): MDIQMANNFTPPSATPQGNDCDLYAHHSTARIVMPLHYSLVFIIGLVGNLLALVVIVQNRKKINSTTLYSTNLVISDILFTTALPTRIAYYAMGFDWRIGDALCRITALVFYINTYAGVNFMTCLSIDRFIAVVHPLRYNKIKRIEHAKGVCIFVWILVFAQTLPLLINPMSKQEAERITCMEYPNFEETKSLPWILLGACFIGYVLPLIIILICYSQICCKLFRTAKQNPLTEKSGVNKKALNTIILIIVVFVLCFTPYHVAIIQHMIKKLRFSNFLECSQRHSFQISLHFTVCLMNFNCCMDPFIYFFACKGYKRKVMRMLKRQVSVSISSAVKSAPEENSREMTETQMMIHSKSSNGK
The nature of assay [13]: Late stage counterscreen results from the probe development effort to identify activators of signal transducer and activator of transcription 1 (STAT1): luminescence-based cell-based dose response assay to identify cytotoxic compounds. It counts as functional. A general note: Counterscreens check selectivity or assay interference.
For assay [14], the target named is T2, Endoribonuclease toxin MazF (Escherichia coli K-12, UniProt P0AE70).
T2 sequence (P0AE70 whole entry): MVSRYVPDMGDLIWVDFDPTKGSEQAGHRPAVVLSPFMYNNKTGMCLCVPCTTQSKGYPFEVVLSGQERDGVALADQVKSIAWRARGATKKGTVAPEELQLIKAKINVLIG
The assay is described as follows: activation of MazEF endoribonuclease cleavage – biochemical, fluorescence, single-stranded RNA substrate, uHTS hits, dose response (AID 588481). It counts as functional.

Assay [15] concerns the target T2, Endoribonuclease toxin MazF. As to the kind of experiment: substrate-only fluorescence increase artefacts – biochemical, single-stranded RNase substrate, counter-screen for MazEF activator project, dose response (AID 588502). In kind it is functional.
Assay [16] is described as follows: CellTiter-Glo luminescence survival assay, SW480 colon tumor line, concentration-response curve, half-maximal inhibitory concentration (AID 1117338). In kind it is functional.
Assay [17] in a line: RKO cell viability reduction, dose response, CellTiter-Glo luminescence (AID 1117322). It counts as functional.
A short description of assay [18]: cytotoxicity toward Colo320 cells – cell-based, CellTiter-Glo luminescence, IC50, dose response (AID 1117334). It counts as functional. Particulars: COLO 320.
Assay [19] in a line: rise of 4N DNA cells, HeLa – IC50, dose response (AID 1117351). In kind it is functional, cell-based.
Assay [20] can be described thus: Reduced DLD-1 viability, concentration-response, CellTiter-Glo luminescence (AID 1117352). In kind it is functional.
A short description of assay [21]: HCT116 cell viability decrease, GSK3B pretreatment – CellTiter-Glo, IC50, dose response (AID 1117339). In kind it is functional. Particulars: HCT-116.
Assay [22] is described as follows: viability loss in A549 lung cells – cell-based, 24 h, CellTiter-Glo luminescence, cherry-picks, cytotoxicity control, dose response (AID 1053115). It counts as functional. As to conditions: A549, 24 h.

The values that follow come from ChEMBL document CHEMBL1201862, “PubChem BioAssay data set” (2004).

What is called AC50 is the concentration at which the activity in the assay is half-maximal. By IC50 is commonly meant the concentration at which inhibition is half-maximal. What is called EC50 is the concentration giving half of the maximal effect.

Each structure is given as a SMILES string. Activity calls are given as the source filed them. A value given as a limit tells only on which side of the number the result lay.

Cytochrome P450 3A4, sequence (P08684 whole entry): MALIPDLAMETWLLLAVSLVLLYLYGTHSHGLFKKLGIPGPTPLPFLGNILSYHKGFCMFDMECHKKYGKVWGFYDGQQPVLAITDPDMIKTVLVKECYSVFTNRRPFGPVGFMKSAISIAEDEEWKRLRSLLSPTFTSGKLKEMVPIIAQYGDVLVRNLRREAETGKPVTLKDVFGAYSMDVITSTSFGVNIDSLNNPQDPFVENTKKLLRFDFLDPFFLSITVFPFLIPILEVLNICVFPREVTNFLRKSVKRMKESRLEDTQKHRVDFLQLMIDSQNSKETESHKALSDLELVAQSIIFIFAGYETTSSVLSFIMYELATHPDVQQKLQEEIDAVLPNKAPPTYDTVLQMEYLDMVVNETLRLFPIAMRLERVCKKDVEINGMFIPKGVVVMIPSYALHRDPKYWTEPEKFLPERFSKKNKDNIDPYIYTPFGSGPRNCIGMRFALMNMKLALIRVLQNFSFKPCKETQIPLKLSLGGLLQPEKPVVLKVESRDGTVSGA

Regarding `CC(C)N1C[C@H](C)[C@@H](CN(C)Cc2ccc(Oc3ccccc3)cc2)Oc2c(NC(=O)c3ccncc3)cccc2C1=O`, the AC50 is 0.00111 µM (active) in [1] and 0.00119 µM (active) in [2]. In addition, in assay [3], the IC50 is 0.00163 µM (active).

For the compound `COc1ccc(N2C(=O)c3ccccc3NC2c2ccc(OC)c(CSc3ccccn3)c2)cc1` (stereo unspecified), the half-inhibitory concentration (IC50) is 7.42 µM (active) in assay [4] and 5.92 µM (active) in [5]. Also, the AC50 was 15.8 µM (inconclusive) at Cytochrome P450 1A2 and 1 µM (inconclusive) on Cytochrome P450 3A4.

`CN(C)c1ccc(/C=C/C=C2/C(=O)NC(=O)N(c3ccccc3)C2=O)cc1`: the results for the EC50 in [6], in [7] and in assay [9] were > 2.94 µM (inactive), > 79.4 µM (not active) and 4.13 µM (active), respectively. Besides, the IC50 in assay [8] was 317 µM (active); on Nonstructural protein 1, 12.1 µM (active); in assay [10], 28.2 µM (active); in [11] it was 71.2 µM (active); on Prothrombin, 19.6 µM (active).

Take `CCOc1ccc(/C=C/C(=O)N2CCN(S(=O)(=O)c3ccc(Br)cc3)CC2)cc1`: the IC50 in assay [12] was 0.0143 µM (active).

As for `CCN(CC)c1ccc2cc(C(=O)Nc3ccccn3)c(=O)oc2c1`, the IC50 in assay [13] is > 55.7 µM (not active). Moreover, the EC50 in assay [14] and in [15] was > 99 µM (inactive) throughout.

In the case of `COc1cccc2c1C(=O)c1c(O)c3c(c(O)c1C2=O)C[C@@](O)(C(=O)CO)CC3OC1CC(N2CCOC(OC)C2)C(O)C(C)O1` (stereo partly specified), the IC50 in [16] was 0.001 µM (active); in assay [17] it was 0.001 µM (active); in assay [18] it was 0.001 µM (active); in assay [19] it was > 10 µM (inactive); in assay [20], 0.001 µM (active); in assay [21], 0.001 µM (active).

Take `OC[C@@H]1Nc2ccc(-c3cccc(F)c3)cc2[C@H]2[C@@H]1CCN2Cc1ccc(F)cc1`: the AC50 in assay [22] was 51.5 µM (active).
